Experimental data from patent publication US20050101595A1, “N-containing cycloalkyl-substituted amino-thiazole derivatives and pharmaceutical compositions for inhibiting cell proliferation and methods for their use” (PFIZER INC., priority 2003, published 2005).
Like-named read-outs stand apart in the source and are kept apart here.

What was measured:
CDK2/Cyclin A = CDK2/Cyclin A (Homo sapiens, UniProt P24941); assay: Inhibition of CDK2/Cyclin A Retinoblastoma Kinase Activity; assay type: biochemical; settings: for CDK2 % Inhibition At 0.03 μM: Table 2; for Ki: apparent Ki, CDK2/proteolyzed cyclin A, Rb fragment substrate, 25 μM ATP
Method in brief: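 Human CDK2, baculovirus/insect-cell expressed, complexed with proteolyzed cyclin A (10 nM or 19 nM CDK2) phosphorylates an Rb fragment with 25 μM [32P/33P]ATP at pH 7.4, 30° C, for 60 or 75 minutes under initial-rate conditions. Filter-captured radioactivity is read by phosphorimager; apparent Ki from competitive-inhibition fits.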

[1] = molecular target: human CDK4 and genetically truncated (1-264) cyclin D3 (Homo sapiens, UniProt P11802); assay: Inhibition of CDK4/Cyclin D Retinoblastoma Kinase Activity; assay type: biochemical; settings: for Ki: apparent Ki, CDK4/truncated cyclin D3, Rb fragment substrate, 25 μM ATP
Chain of human CDK4 and genetically truncated (1-264) cyclin D3 (P11802 whole entry, the tested form may be a part): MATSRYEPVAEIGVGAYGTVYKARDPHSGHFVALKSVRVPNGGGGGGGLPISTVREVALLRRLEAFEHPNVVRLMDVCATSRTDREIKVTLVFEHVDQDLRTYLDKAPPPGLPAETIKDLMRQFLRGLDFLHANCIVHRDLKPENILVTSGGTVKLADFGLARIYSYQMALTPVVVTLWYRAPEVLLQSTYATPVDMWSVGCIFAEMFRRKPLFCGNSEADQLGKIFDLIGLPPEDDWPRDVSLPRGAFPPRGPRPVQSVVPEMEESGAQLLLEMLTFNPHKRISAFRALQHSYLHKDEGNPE
Chain of human CDK4 and genetically truncated (1-264) cyclin D3 (P30281 1-264 partner): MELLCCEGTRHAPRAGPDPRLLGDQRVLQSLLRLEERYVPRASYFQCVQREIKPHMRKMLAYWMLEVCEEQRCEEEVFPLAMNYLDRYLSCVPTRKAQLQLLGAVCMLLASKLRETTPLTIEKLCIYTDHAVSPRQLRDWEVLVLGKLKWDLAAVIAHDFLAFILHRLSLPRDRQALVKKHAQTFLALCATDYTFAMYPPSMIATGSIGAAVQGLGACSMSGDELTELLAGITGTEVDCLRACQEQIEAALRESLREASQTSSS
Method in brief: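 Read-out: 32P/33P incorporation into Rb fragment (386-928) captured on nitrocellulose, phosphorimager. Enzyme 5 nM CDK4/cyclin D3(1-264) from insect cells; ATP 25 μM, pH 7.4, 30 °C, 20 min (60 min for tight binders). Ki from competitive fits.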

HCT-116 cell line = assay: Inhibition of cell growth, tetrazolium salt (MTT) assay; assay type: cell-based; settings: for HCT-116 % Inhibition at 0.25 μM: 0.25 μM compound; for IC50: Homo sapiens, HCT-116, 120 h, MTT, three to five days, read-out: HCT-116 IC50
Method in brief: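 McCoy's 5A cultures; 4 h pre-incubation; compound dilutions in 0.5% v/v DMSO; 3–5 d, 37° C, 5% CO2; MTT 0.2 mg/mL final, 4 h; formazan dissolved in DMSO, A540; vs 0.5% DMSO vehicle.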

[2] = 0.1 μM compound, HCT-116, Table 3

Row | SMILES | CDK2 % Inhibition at 0.03 μM (CDK2/Cyclin A; at 0.03 μM) [%] | CDK4 % Inhibition at 0.03 μM ([1]; at 0.03 μM) [%] | HCT-116 % Inhibition at 0.1 μM (HCT-116 cell line; HCT-116 cells, at 0.1 μM) [%] | HCT-116 5 Inhibition at 0.25 μM (HCT-116 cell line; HCT-116 cells) | other results
1 | Nc1nc(NC2CCN(C(=O)CC3CCCC3)CC2)sc1C(=O)c1c(F)cccc1F [Example R78] | 20 | 19 | 0 | 47 | 
2 | CS(=O)(=O)c1ccc(S(=O)(=O)N2CCC(Nc3nc(N)c(C(=O)c4c(F)cccc4F)s3)CC2)cc1 [Example P80] |  |  |  |  | CDK2 % Inhibition at 0.03 μM (CDK2/Cyclin A; 0.03 μM compound, Table 3): 81%; CDK4 % Inhibition at 0.03 μM ([1]; 0.03 μM compound, Table 3): 73%; HCT-116 % Inhibition at 0.1 μM (HCT-116 cell line; [2]): 15%; HCT-116 % Inhibition at 0.25 μM (HCT-116 cell line; HCT-116, Table 3): 29%
3 | Nc1nc(NC2CCN(C(=O)Nc3cc(C(F)(F)F)ccc3F)CC2)sc1C(=O)c1c(F)cccc1F [Example O85] |  |  |  |  | CDK2 % Inhibition At 0.03 μM (CDK2/Cyclin A; 0.03 μM compound): 34%; CDK4 % Inhibition at 0.03 μM ([1]; 0.03 μM compound, Table 2): 8%; HCT-116 % Inhibition at 0.25 μM (HCT-116 cell line; HCT-116, Table 2): 47%
4 | CCOC(=O)C(CCSC)NC(=O)N1CCC(Nc2nc(N)c(C(=O)c3c(F)cccc3F)s2)CC1 (centres unmarked) [Example O71] |  |  |  |  | CDK2 % Inhibition At 0.03 μM (CDK2/Cyclin A; 0.03 μM compound): 30%; CDK4 % Inhibition at 0.03 μM ([1]; 0.03 μM compound, Table 2): 7%; HCT-116 % Inhibition at 0.25 μM (HCT-116 cell line; HCT-116, Table 2): 51%
5 | Nc1nc(NC2CCN(C(=O)Nc3ccccc3C(F)(F)F)CC2)sc1C(=O)c1c(F)cccc1F [Example O10] |  |  |  |  | CDK2 % Inhibition At 0.03 μM (CDK2/Cyclin A; 0.03 μM compound): 28%; CDK4 % Inhibition at 0.03 μM ([1]; 0.03 μM compound, Table 2): 5%; HCT-116 % Inhibition at 0.25 μM (HCT-116 cell line; HCT-116, Table 2): 0%
6 | CCn1nc(C)c(Br)c1C(=O)N1CCC(Nc2nc(N)c(C(=O)c3c(F)cccc3F)s2)CC1 [Example R68] | 22 | 15 | 0 | 33 | 
7 | Nc1nc(NC2CCN(S(=O)(=O)c3ccc(C(F)(F)F)cc3)CC2)sc1C(=O)c1c(F)cccc1F [Example P33] |  |  |  |  | CDK2 % Inhibition at 0.03 μM (CDK2/Cyclin A; 0.03 μM compound, Table 3): 56%; CDK4 % Inhibition at 0.03 μM ([1]; 0.03 μM compound, Table 3): 59%; HCT-116 % Inhibition at 0.1 μM (HCT-116 cell line; [2]): 6%; HCT-116 % Inhibition at 0.25 μM (HCT-116 cell line; HCT-116, Table 3): 32%
8 | CN1CCN(S(=O)(=O)N2CCC(Nc3nc(N)c(C(=O)c4c(F)cccc4F)s3)CC2)CC1 [Example E3, {4-Amino-2-[1-(4-methyl-piperazine-1-sulfonyl)-piperidin-4-ylamino]-thiazol-5-yl}-(2,6-difluoro-phenyl)-methanone] |  |  |  |  | Ki (CDK2/Cyclin A): 0.012 µM; Ki [1]: 0.0054 µM; IC50 (HCT-116 cell line; first HCT-116 column (c4)): 0.33 µM; IC50 (HCT-116 cell line; second HCT-116 column (c5)): 0.78 µM
9 | Cn1cnc(S(=O)(=O)N2CCC(Nc3nc(N)c(C(=O)c4c(F)cccc4F)s3)CC2)c1 [Example F2, 1-{4-Amino-2-[1-(i-methyl-1H-imidazole-4-sulfonyl)-piperidin-4-ylamino]-thiazol-5-yl}-1-(2,6-difluoro-phenyl)-methanone] |  |  |  |  | Ki (CDK2/Cyclin A): < 0.005 µM; Ki [1]: 0.0019 µM; IC50 (HCT-116 cell line; first HCT-116 column (c4)): 1.3 µM; IC50 (HCT-116 cell line; second HCT-116 column (c5)): 4 µM
10 | Nc1nc(NC2CCN(C(=O)c3cc(C(F)(F)F)ccc3C(F)(F)F)CC2)sc1C(=O)c1c(F)cccc1F [Example R55] | 11 | 37 | 5 | 51 | 
11 | Nc1nc(NC2CCN(C(=O)Nc3ccc(Oc4ccccc4)cc3)CC2)sc1C(=O)c1c(F)cccc1F [Example O52] |  |  |  |  | CDK2 % Inhibition At 0.03 μM (CDK2/Cyclin A; 0.03 μM compound): 24%; CDK4 % Inhibition at 0.03 μM ([1]; 0.03 μM compound, Table 2): 11%; HCT-116 % Inhibition at 0.25 μM (HCT-116 cell line; HCT-116, Table 2): 33%

Further lines, with some results ahead:

Row | CDK2 % Inhibition at 0.03 μM (CDK2/Cyclin A; at 0.03 μM) [%] | CDK4 % Inhibition at 0.03 μM ([1]; at 0.03 μM) [%] | SMILES | HCT-116 % Inhibition at 0.1 μM (HCT-116 cell line; HCT-116 cells, at 0.1 μM) [%] | HCT-116 5 Inhibition at 0.25 μM (HCT-116 cell line; HCT-116 cells) | other results
12 | 35 | 60 | Nc1nc(NC2CCN(C(=O)c3ccc4c(c3)C(=O)c3ccccc3C4=O)CC2)sc1C(=O)c1c(F)cccc1F [Example R34] | 0 | 55 | 
13 | 26 | 13 | Cc1ccc(S(=O)(=O)N[C@@H](Cc2ccccc2)C(=O)N2CCC(Nc3nc(N)c(C(=O)c4c(F)cccc4F)s3)CC2)cc1 [Example R75] | 0 | 41 | 
14 | 63 | 78 | CNc1ccc(C(=O)N2CCC(Nc3nc(N)c(C(=O)c4c(F)cccc4F)s3)CC2)cc1 [Example R147] | 0 | 41 | 
15 | 21 | 52 | Nc1nc(NC2CCN(C(=O)c3ccc(Cl)c(Cl)c3)CC2)sc1C(=O)c1c(F)cccc1F [Example R133] | 5 | 56 | 
